Like-named read-outs stand apart in the source and are kept apart here.
What was measured:
[1] = target: T1, EV71 3D^pol (Human enterovirus 71, UniProt Q66478); assay: Fluorescence-based activity assay for EV71 3Dpol; format: biochemical; conditions: poly(A)/UTP, SYTO 9, 30°C
T1 construct: EV71 3D^pol was cloned into the pET28a expression vector with a His tag at the N terminus; His tag (N); made in house; host or cells: E. coli BL21-derived cells
Experimental: (§1) EV71 3D^pol was cloned into the pET28a expression vector with a His tag at the N terminus and expressed in E. coli BL21-derived cells. The 3D^pol protein was purified by Ni-column affinity chromatography, and a gel filtration column was connected to an ÄKTA system (General Electric Company, CT, USA). The purity of the resulting 3D^pol protein was determined through SDS-PAGE analysis.
We followed the novel fluorescence-based method for the detection of polymerase activity of EV71 3D^pol ([52]). Reactions were performed in individual wells of black 96-well flat-bottom plates. The standard reaction contained 50 mM Tris-HCl (pH 7.5), 2.5 mM MnCl2, 100 μM UTP, 40 μg/ml poly(A), 0.1 mg/ml bovine serum albumin (BSA), and 0.25 μM SYTO 9. Different concentrations of FNC were added to the reaction mixtures. The assay was initiated by the addition of EV71 3D^pol, and the fluorescence was recorded at 30°C.

[2] = system: EVD68; assay: Anti-EVD68 activity in infected RD cells (RT-qPCR); conditions: Enterovirus D, read-out: EC50 for EVD68
[3] = system: EV71; assay: Anti-EV71 activity in infected RD cells (Western blot, RT-qPCR, virus titer)
[4] = system: MDCK cells; assay: Cytotoxicity, CCK-8 cell viability assay in MDCK cells; format: cell-based; conditions: 48 h
Experimental: (§2) The cells were treated with various concentrations of compounds dissolved in DMSO for 48 h, and then cell viability was assayed using a Cell Counting kit‑8 (CCK-8; Beyotime, Shanghai, China). In brief, 10 μl of the CCK‑8 solution was added, and the cells were incubated for an additional 2 h. Medium without cells was used as a blank control. Absorbance at a wavelength of 450 nm was measured using a microplate reader. Cell viability was determined as a percentage of that of the control. All cell proliferation assays were performed in triplicate and repeated in three independent experiments.

[5] = system: CA16 CC045; assay: Lethal CA16 challenge, neonatal mouse model; format: in vivo, ICR neonatal mice
Experimental: (§3) One-day-old specific pathogen-free (SPF) ICR neonatal mice (Beijing Institute of Radiation Medicine) were used to establish the animal model of viral infection. All welfare and experimental procedures were carried out strictly in accordance with the Guide for the Care and Use of Laboratory Animals and the related ethical regulations of the Beijing Institute of Radiation Medicine. All efforts were made to minimize animal suffering. The neonatal mice were randomly divided into five groups, and each group contained three litters (n = 8 to ∼10 per litter). One group was inoculated intracerebrally with DMEM (10 μl/mouse) and after 1 h injected intraperitoneally with DMSO (control group). Two groups were inoculated intracerebrally with EV71 CC063 (10^5.5 CCID50 ml^−1) and after 1 h injected intraperitoneally with FNC or DMSO. Two groups were inoculated intracerebrally with CA16 CC045 (10^2.7 CCID50 ml^−1) and after 1 h injected intraperitoneally with FNC or DMSO. The survival rates and mean clinical symptoms were monitored daily for 15 days postinfection. The mean clinical symptoms were scored as follows: 0, healthy; 1, lethargy or weakness; 2, wasting; 3, limb tremors; 4, paralysis in hind limb; and 5, moribund or dead. The control mice were healthy throughout the experiments.
After intracerebral inoculation with EV71 CC063 viruses, CA16 CC045 viruses, or culture medium, three experimental neonatal mice and three control neonatal mice were subjected to viral load detection. The EV71 infection and control groups were collected on day 9 postinfection, and the CA16 infection and control groups were collected on day 14 postinfection. All tissues, including brain, lung, spine skeletal muscle, and hind-limb muscle, were weighed individually, homogenized in sterile PBS, disrupted by freeze-thawing, and centrifuged. The samples were treated with TRIzol (Invitrogen) for RNA extraction and viral load determination by real-time PCR, as described previously ([42]). Viral loads were determined by real-time PCR and expressed as log10 copies/mg tissue. […]

[6] = system: HEK293T cells; assay: Cytotoxicity, CCK-8 cell viability assay in HEK293T cells; format: cell-based; conditions: 48 h
Experimental: as §2

[7] = target: T1, EV71 3D^pol; assay: Isothermal titration calorimetry with EV71 3Dpol; format: binding
Experimental: as §1
ITC experiments were performed by using an ITC200 instrument (MicroCal, Inc., Northampton, MA, USA). The concentration of 3D^pol was 100 μM. FNC was diluted with buffer (pH 7.5, 25 mM HEPES, 100 mM NaCl) to yield a solution of 1.0 mM. The sample cell was filled with 3D^pol protein solution, and FNC was added by syringe at 25°C. The stirring rate was 750 r/min. All data were analyzed using the Origin 7.0 software.

[8] = system: CVB3; assay: Anti-CVB3 activity in infected RD cells (RT-qPCR); conditions: Enterovirus B, read-out: EC50 for CVB3
[9] = system: EV71, CA16, CA6, CVB3, and EVD68; assay: Antiviral activity against a variety of enteroviruses in RD cells
[10] = Cytotoxicity, CCK-8 cell viability assay in RD cells; format: cell-based, human; conditions: human
Experimental: as §2

[11] = system: RD cells; assay: as above; format: cell-based, human; conditions: 48 h
Experimental: as §2

[12] = system: CA16; assay: Anti-CA16 activity in infected RD cells (RT-qPCR); conditions: Enterovirus A, read-out: EC50 for CA16
[13] = system: deoxycytidine kinase; set-up: method as in PMID 18003608; conditions: substrate for deoxycytidine kinase ref 32; cited from earlier work
[14] = system: EV71 CC063; assay: Lethal EV71 challenge, neonatal mouse model; format: in vivo, ICR neonatal mice
Experimental: as §3
After intracerebral inoculation with EV71 CC063 viruses, CA16 CC045 viruses, or culture medium, three experimental neonatal mice and three control neonatal mice were subjected to viral load detection. The EV71 infection and control groups were collected on day 9 postinfection, and the CA16 infection and control groups were collected on day 14 postinfection. All tissues, including brain, lung, spine skeletal muscle, and hind-limb muscle, were weighed individually, homogenized in sterile PBS, disrupted by freeze-thawing, and centrifuged. The samples were treated with TRIzol (Invitrogen) for RNA extraction and viral load determination by real-time PCR, as described previously ([42]). Viral loads were determined by real-time PCR and expressed as log10 copies/mg tissue.
A total of 15 mice were sampled, as follows: three normal mice from the mock-infected group (the clinical score of grade 0), three mice from the EV71-infected and DMSO-treated group (the clinical score of grade 4), three mice from the CA16-infected and DMSO-treated group (the clinical score of grade 3), three mice from the EV71-infected and FNC-treated group (the clinical score of grade 3), and three mice from the CA16-infected and FNC-treated group (the clinical score of grade 1). After the mice were anesthetized, lung, brain, spine skeletal muscle, and hind-limb muscle tissues were harvested and immersion fixed with 10% formaldehyde solution for 5 days. […]

[15] = system: influenza A(H1N1) virus; assay: Anti-influenza A(H1N1) activity in MDCK cells (Western blot, RT-qPCR); format: cell-based
[16] = system: CA6; assay: Anti-CA6 activity in infected RD cells (RT-qPCR); conditions: read-out: EC50 for CA6
[17] = system: RSV; assay: Anti-RSV activity in HEK293T cells (Western blot, RT-qPCR); format: cell-based, respiratory syncytial virus; conditions: MOI 0.5, 48 h, safe drug concentrations
[18] = system: EV71; set-up: method as in PMID 18279075; conditions: RD cells, virus-induced CPE assay ref 27; read-out: 50% effective concentration (EC50) against EV71; cited from earlier work
[19] = vs DMSO treatment group, P < 0.05

T1 sequence (Q66478 1732-2193): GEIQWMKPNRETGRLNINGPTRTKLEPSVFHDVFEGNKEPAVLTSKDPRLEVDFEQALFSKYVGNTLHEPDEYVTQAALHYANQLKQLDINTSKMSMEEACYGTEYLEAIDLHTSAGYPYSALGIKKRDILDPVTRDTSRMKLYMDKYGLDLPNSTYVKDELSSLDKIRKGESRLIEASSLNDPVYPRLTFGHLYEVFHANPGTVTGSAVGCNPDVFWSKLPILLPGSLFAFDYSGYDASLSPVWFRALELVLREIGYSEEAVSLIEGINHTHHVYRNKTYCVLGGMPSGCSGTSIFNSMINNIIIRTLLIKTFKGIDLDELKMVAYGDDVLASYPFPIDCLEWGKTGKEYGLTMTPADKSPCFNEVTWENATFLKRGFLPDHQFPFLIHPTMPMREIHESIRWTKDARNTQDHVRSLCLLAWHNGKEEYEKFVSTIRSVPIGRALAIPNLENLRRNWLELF

SMILES: [N-]=[N+]=N[C@]1(CO)O[C@@H](n2ccc(N)nc2=O)[C@@H](F)[C@@H]1O [FNC, 2'-deoxy-2'-β-fluoro-4'-azidocytidine]
- RNA synthesis activity of EV71 3Dpol [1]: inhibited the RNA synthesis activity of EV71 3D^pol in a dose-dependent manner
- EC50 [2]: 1.55 nM
- virus titers in supernatants (plaque assay, CPE-based TCID50) ([3]; EV71-infected RD cells, increasing doses): continuously decreasing virus titers
- EC50 ([3]; Enterovirus A, EV71, RD, 48 h, read-out: EC50 against EV71, RD cells, from reduced viral RNA level (RT-qPCR), 48 h): 16.9 nM
- EV71 VP1 protein by Western blot ([3]; RD cells, 100 nM, 48 h postinfection): could not be detected
- anti-EV71 activity, intracellular VP1 protein by Western blot ([3]; RD cells, MOI 0.1, 48 h treatment, 1 μM): obvious anti-EV71 activity
- safe dose [4]: 10 µM
- tissue damage, H&E histology ([5]; CA16-infected brain, spinal skeletal muscle, hind-limb muscle): significantly reduced the damage
- mortality ([5]; CA16 CC045 intracerebral, 1-day-old mice, 1 mg/kg i.p. days 1, 3, 6, 9, 12, 15 days): 0%
- CA16 viral load in all detected tissues (RT-qPCR) ([5]; brain, lung, spine skeletal muscle, hind-limb muscle, vs DMSO, P < 0.05): completely decreased
- safe dose [6]: 100 µM
- Kd [7]: 6000 nM
- EC50 [8]: 33.8 nM
- virions in the supernatant and viral titers ([9]; CA16, CA6, CVB3, EVD68, RD cells): suppressed by FNC in a dose-dependent manner
- positive- and negative-strand EV RNA synthesis (RT-qPCR) ([9]; EV71, CA16, CA6, CVB3, EVD68, RD cells, 48 h): inhibited both positive- and negative-strand EV RNA synthesis
- selectivity indices (CC50/EC50) against EVs ([9]; RD cells): good selectivity indices
- EC50 ([9]; RD, read-out: EC50 against a variety of enteroviruses): 1.55 to 52.1 nM
- suppression of EVs (VP1 protein expression, viral RNA levels, viral titers) ([9]; in vitro cell model): efficiently suppressed
- CC50 at 48 h [10]: 3240 nM
- concentration that did not significantly affect cell viability (safe dose) [11]: 1000 nM
- EC50 [12]: 52.1 nM
- phosphorylation efficiency relative to deoxycytidine [13]: up to 3 fold
- tissue damage, H&E histology ([14]; EV71-infected spinal skeletal muscle and hind-limb muscle): significantly reduced the damage
- mortality ([14]; EV71 CC063 intracerebral, 1-day-old mice, 1 mg/kg i.p. days 1, 3, 6, 9, 12, 15 days): 20%
- EV71 viral load in spine skeletal muscle and hind-limb muscle (RT-qPCR) [14, 19]: completely decreased
- EV71 viral loads in brain and lung (RT-qPCR) [14, 19]: moderately reduced
- effect on H1N1 replication (viral proteins, RNA) [15]: no inhibitory effect
- EC50 [16]: 13.4 nM
- effect on RSV replication (viral proteins, RNA) [17]: no inhibitory effect

SMILES: NC(=O)c1ncn([C@@H]2O[C@H](CO)[C@@H](O)[C@H]2O)n1 [ribavirin]
- EC50 [18]: 266000 nM
- interaction with EV71 3Dpol by ITC ([7]; ITC, 25°C, 3 mM ribavirin into 100 μM 3Dpol): failed to observe the interaction
